Data: ChEMBL document CHEMBL1914374, “Effect of different C3-aryl substituents on the antioxidant activity of 4-hydroxycoumarin derivatives” (Bioorg Med Chem, 2011)

How the values were obtained:
Type in all cases: functional
[1] = system: Radical scavenging activity; assay: Antioxidant activity assessed as DPPH free radical scavenging activity after 10 mins by UV-Vis spectrophotometric analysis
[2] = Antioxidant activity assessed as trolox equivalents of ABTS radical scavenging activity by TEAC assay
[3] = Antioxidant activity in soybean lipoxygenase-induced beta-carotene-linoleic acid co-oxidation assessed as inhibition of beta-carotene bleaching after 10 mins relative to control; parameters: scale not given: the % may be the effect or the level left

SMILES | EC50 [1] [mM] | Activity [2] [µmolequiv/g] | Activity [3] [%/mmol]
O=c1oc2ccccc2c(O)c1-c1ccccc1 | 4.19 | 46.6 | 5.79
O=c1oc2ccccc2c(O)c1-c1ccc(Cl)cc1 | 4.15 | 50 | 5.94
O=c1cc(O)c2ccccc2o1 [4-HYDROXYCOUMARINS] | 3.8 | 186 | 2.07
COc1ccc(-c2c(O)c3ccccc3oc2=O)cc1 | 0.54 | 699 | 23.1
O=c1oc2ccccc2c(O)c1-c1ccccc1Cl | 4.14 | 50 | 
O=c1oc2ccccc2c(O)c1-c1cccc2ccccc12 | 6.41 | 56.8 | 4.26

The next lines start with results.

EC50 [1] [mM] | SMILES | Activity [2] [µmolequiv/g] | Activity [3] [%/mmol]
1.92 | COc1ccccc1-c1c(O)c2ccccc2oc1=O | 567 | 25.5
8.9 | Cc1cc(=O)oc2cc(O)ccc12 [HYMECROMONE] | 54.8 | < 0.5
